Results from patent US8648116B2, “Derivatives of N-(arylamino) sulfonamides including polymorphs as inhibitors of MEK as well as compositions, methods of use and methods for preparing the same” (Ardea Biosciences, Inc., priority 2005, dated 2014).
Read-outs that look alike come from different tables or passages of the source.

Key:
rat hepatocytes = test: Primary hepatocyte toxicity (AK release, ATP, 48 hr); type: cell-based; settings: 48 hr
Protocol: Cryopreserved rat hepatocytes were obtained from CellzDirect (Austin, Tex.) and plated on collagen coated 96-well plates according to manufacturer's instructions. Drug was added 4 hr after plating (final DMSO concentration 0.5%).
After 48 hr, supernatant AK levels were determined using Toxilight, and cellular ATP levels were determined using CellTiterGlo. Full kill values were determined using 15 μM VRX-14686.

[1] = Pharmacokinetic parameters in Balb/c mice (Example 94D); type: in vivo
Protocol: Pharmacokinetic parameters were obtained from dosing Balb/c mice with 25 mg/kg Compound A and extrapolating values for the lower dose groups and shown in the table below.

[2] = Plasma concentrations in mice (Example 94F); type: in vivo, nu/nu mice; settings: A375-bearing nu/nu mice; for AUC / Cmax: female, nu/nu, mouse, plasma, po
[3] = test system: orthotopic Hep3B2.1-7 human hepatic carcinoma; test: Growth response of orthotopic Hep3B tumors in nude mice; type: in vivo, BALB/c nu/nu mice
Protocol: Female BALB/c nu/nu mice (University of Adelaide, Waite Campus, SA, Australia), aged 10-14 weeks, with a body weight range: of 19.1-29.94 g (mean 22.95 g) were used for the study. The mice were divided into 6 Study groups (4 treatment groups and 2 control groups) as follows: • Number of Mice per Group: 10 in Groups 1 to 5 inclusive • 15 in ‘Take-Rate’ Control Group (Group 6)
Hep3B human hepatic carcinoma cells (Passage 2 from working stock VP-Stock 353) were cultured in RPMI1640 cell culture medium, which was supplemented with 10% FBS and penicillin-streptomycin (501 U/mL final concentration). The cells were harvested by trypsinisation, washed twice in HBSS and counted. The cells were then resuspended in HBSS:Matrigel (1:1, v/v) and adjusted to a final volume containing 1×10^8 cells/mL. Prior to inoculation, the incision site was liberally swabbed with alcohol and an incision made through the abdominal wall to expose the liver. The needle was introduced through the surface of the liver where 10 μL of cells (1×10^6 cells) were discharged. The needle was held in this position for approximately 30 seconds to allow the Matrigel® to polymerize in order to avoid leakage of tumor cells into the abdominal cavity.
Treatment commenced 14 days post-inoculation. On Day 7 of the study (21 days post-inoculation), all mice from the ‘Take-Rate’ control group were culled and the livers visually assessed for the presence of tumors.
A stock solution was prepared weekly and stored at 4° C. Dosing solutions were prepared on each day of administration. […] The compound was administered at doses of 2, 10 and 50 mg/kg.
Liver and tumor wet weight were measured when each were excised post-mortem on the termination day of the study. At the termination of the study, livers were excised from all mice in each study group and weighed. The number of visible tumors, if present, was counted. These tumors were removed from the liver and weighed.
A One-Way Analysis of Variance (ANOVA) (All Pairwise Multiple Comparison Procedure and Multiple Comparison versus Control Group) was performed on liver weight and tumor weight data at the end of the study. […] The same statistical analyses were performed on the data for the tumor-bearing mice in the study.

[4] = test system: Complete Freund's Adjuvant induced arthritis; test: Rat adjuvant arthritis inflammation assay; type: in vivo, rats; settings: 20 mg/kg orally for 5 days
Protocol: In the rat adjuvant induced arthritis model, Complete Freund's Adjuvant (CFA) is injected into the right hind paw of rats to induce pathologies similar to rheumatoid arthritis in humans. Compound A was administered orally for 5 consecutive days at 2, 6, and 20 mg/kg. Dexamethasone at 5 m g/kg was also administered orally for 5 days. Enbrel at 10 mg/kg was administered by subcutaneous injection on days 1 and 4. CFA was injected into the right hind paw one hour after the first dose on day 1. […] Polyarthritis was scored as the presence of swelling in front paws, tail, nose or ear.

[5] = test system: human A375 melanoma xenografts
HT29 colon cells = test: Anchorage-dependent growth inhibition (CellTiterGlo/ATP, 48 hr); settings: Homo sapiens, HT-29, 48 h, read-out: Anchorage-Dependent GI50 (nM ± sd)
Protocol: (§1) Cells were maintained at 37° C., 5% CO2, and 100% humidity. Colo205 cells were maintained in RPMI supplemented with 10% fetal bovine serum, glutamine (2 mM), penicillin (100 U/ml), and streptomycin (100 μg/ml). For growth inhibition experiments, cells were plated in white 384-well microplates at 1000 cells/20 dwell. After 24 hr, 5 μl of a 5× drug stock solution was added. All drugs were initially prepared as 200× stocks in DMSO, such that final DMSO concentration was 0.5%. Cells were incubated for 48 hr at 37° C. and ATP levels were determined using CellTiterGlo (Promega, Madison, Wis.). […] Non-linear curve-fitting was performed using GraphPad Prism 4 (GraphPad Software, San Diego, Calif.).

A431 epidermoid cells = test: as above; settings: Homo sapiens, A-431, 48 h, read-out: Anchorage-Dependent GI50 (nM ± sd)
Protocol: as §1

[6] = 2.5 mg/kg, extrapolated from 25 mg/kg in Balb/c mice
[7] = 5 mg/kg, extrapolated from 25 mg/kg in Balb/c mice
[8] = 10 mg/kg, extrapolated from 25 mg/kg in Balb/c mice
[9] = oral, column 1, no head (b1249 order: 50 mg/kg QD)
[10] = oral, column 2, no head (b1249 order: 25 mg/kg BID)
[11] = oral, column 3, no head (b1249 order: second 50 mg/kg QD)
[12] = oral, column 4, no head (b1249 order: 12.5 mg/kg BID)
[13] = 50 mg/kg, oral, column 1, no head (b1249 order: 50 mg/kg QD)
[14] = 50 mg/kg, oral, column 3, no head (b1249 order: second 50 mg/kg QD)
[15] = Compound A 2 mg/kg p.o. once daily Day 0 to 18, tumor-bearing mice
[16] = Compound A 10 mg/kg p.o. once daily Day 0 to 18, tumor-bearing mice
[17] = Compound A 50 mg/kg p.o. once daily Day 0 to 18, tumor-bearing mice
[18] = Group 3: Compound A 50 mg/kg po qd × 14
[19] = Group 3: Compound A 50 mg/kg po qd × 14, n=9
[20] = Group 4: Compound A 25 mg/kg po bid × 14
[21] = Group 4: Compound A 25 mg/kg po bid × 14, n=9
[22] = Group 5: Compound A 25 mg/kg po qd × 14
[23] = Group 5: Compound A 25 mg/kg po qd × 14, n=9
[24] = Group 6: Compound A 12.5 mg/kg po bid × 14
[25] = Group 6: Compound A 12.5 mg/kg po bid × 14, n=9

Question: Which “AK release (% Cell Survival) Hepatocytes Rat” value (rat hepatocytes; Compound A 1.1 (μM)) does the source give for COc1cc(F)c(F)c(Nc2ccc(I)cc2F)c1NS(=O)(=O)C1(C[C@H](O)CO)CC1 [Compound A] here?
Answer: 96%

Question: And the “ATP (% Cell Survival) Hepatocytes Rat” value (rat hepatocytes; Compound A 1.1 (μM))?
Answer: 114%

Question: And the “AK release (% Cell Survival) Hepatocytes Rat” value (rat hepatocytes; Compound A 3.3 (μM))?
Answer: 97%

Question: And the “ATP (% Cell Survival) Hepatocytes Rat” value (rat hepatocytes; Compound A 3.3 (μM))?
Answer: 87%

Question: What about the “AK release (% Cell Survival) Hepatocytes Rat” value (rat hepatocytes; Compound A 10.0 (μM)) of the same compound?
Answer: 93%

Question: What about the “ATP (% Cell Survival) Hepatocytes Rat” value (rat hepatocytes; Compound A 10.0 (μM)) of the same compound?
Answer: 72%

Question: And the “AK release (% Cell Survival) Hepatocytes Rat” value (rat hepatocytes; Compound A 30.0 (μM))?
Answer: 91%

Question: What about the “ATP (% Cell Survival) Hepatocytes Rat” value (rat hepatocytes; Compound A 30.0 (μM)) of the same compound?
Answer: 57%

Question: And the AUC [1, 6]?
Answer: 5500 ng·h/mL

Question: And the Cmax [1, 6]?
Answer: 990 ng/mL

Question: And the Cmin [1, 6]?
Answer: 3 ng/mL

Question: And the AUC [1, 7]?
Answer: 11000 ng·h/mL

Question: What about the Cmax [1, 7] of the same compound?
Answer: 1970 ng/mL

Question: And the Cmin [1, 7]?
Answer: 6 ng/mL

Question: What about the AUC [1, 8] of the same compound?
Answer: 22000 ng·h/mL

Question: What about the Cmax [1, 8] of the same compound?
Answer: 3940 ng/mL

Question: What about the Cmin [1, 8] of the same compound?
Answer: 12 ng/mL

Question: What about the Cmin ([1]; 25 mg/kg, Balb/c mice) of the same compound?
Answer: 29 ng/mL

Question: What about the AUC ([1]; mouse, in vivo, oral, 25 mg/kg, Balb/c mice, read-out: AUC) of the same compound?
Answer: 55000 ng·h/mL

Question: And the Cmax ([1]; mouse, in vivo, oral, 25 mg/kg, Balb/c mice, read-out: Cmax)?
Answer: 9850 ng/mL

Question: And the “Cmin” value [2, 9]?
Answer: 60 ng/mL

Question: What about the “Cmin Free Fraction” value [2, 9] of the same compound?
Answer: 0.117 ng/mL

Question: What about the “Cmin” value [2, 10] of the same compound?
Answer: 1240 ng/mL

Question: What about the “Cmin Free Fraction” value [2, 10] of the same compound?
Answer: 2.48 ng/mL

Question: What about the “Cmin” value [2, 11] of the same compound?
Answer: 30 ng/mL

Question: What about the “Cmin Free Fraction” value [2, 11] of the same compound?
Answer: 0.059 ng/mL

Question: What about the “Cmin” value [2, 12] of the same compound?
Answer: 490 ng/mL

Question: What about the “Cmin Free Fraction” value [2, 12] of the same compound?
Answer: 0.986 ng/mL

Question: And the AUC ([2]; 12.5 mg/kg)?
Answer: 78000 ng·h/mL

Question: And the Cmax ([2]; 12.5 mg/kg)?
Answer: 7800 ng/mL

Question: What about the AUC ([2]; 25 mg/kg) of the same compound?
Answer: 117000 ng·h/mL

Question: And the Cmax ([2]; 25 mg/kg)?
Answer: 10200 ng/mL

Question: And the AUC [2, 13]?
Answer: 132000 ng·h/mL

Question: What about the Cmax [2, 13] of the same compound?
Answer: 23800 ng/mL

Question: What about the AUC [2, 14] of the same compound?
Answer: 66500 ng·h/mL

Question: And the Cmax [2, 14]?
Answer: 11900 ng/mL

Question: What about the “No. of Mice with Tumors (out of 10)” value ([3]; Compound A 2 mg/kg p.o. once daily Day 0 to 18) of the same compound?
Answer: 6

Question: What about the “Average Liver Weight” value [3, 15] of the same compound?
Answer: 2.775 g

Question: And the “Average Tumor Weight” value [3, 15]?
Answer: 1.776 g

Question: What about the “No. of Mice with Tumors (out of 10)” value ([3]; Compound A 10 mg/kg p.o. once daily Day 0 to 18) of the same compound?
Answer: 7

Question: What about the “Average Liver Weight” value [3, 16] of the same compound?
Answer: 2.551 g

Question: What about the “Average Tumor Weight” value [3, 16] of the same compound?
Answer: 1.407 g

Question: What about the “No. of Mice with Tumors (out of 10)” value ([3]; Compound A 50 mg/kg p.o. once daily Day 0 to 18) of the same compound?
Answer: 4

Question: What about the “Average Liver Weight” value [3, 17] of the same compound?
Answer: 1.677 g

Question: And the “Average Tumor Weight” value [3, 17]?
Answer: 0.624 g

Question: What about the “animals without front paw swelling (polyarthritis scoring)” value [4] of the same compound?
Answer: 2 of 6

Question: And the “animals without swelling in the tail (polyarthritis scoring)” value [4]?
Answer: 4 of 6

Question: And the “inhibition of paw swelling” value ([4]; acute and delayed phases)?
Answer: significant reduction in swelling

Question: And the “% TGD” value [5, 18]?
Answer: 21%

Question: And the “Median TTE” value [5, 18]?
Answer: 27.5 days

Question: And the “T − C” value [5, 18]?
Answer: 4.7 days

Question: And the “Regressions CR” value [5, 19]?
Answer: 0

Question: What about the “Regressions PR” value [5, 19] of the same compound?
Answer: 1

Question: What about the “Regressions TFS” value [5, 19] of the same compound?
Answer: 0

Question: And the “% TGD” value [5, 20]?
Answer: 163%

Question: What about the “MTV (n) Day 60” value [5, 20] of the same compound?
Answer: 0 (4)

Question: And the “Median TTE” value [5, 20]?
Answer: 59.9 days

Question: What about the “T − C” value [5, 20] of the same compound?
Answer: 37.1 days

Question: And the “Regressions CR” value [5, 21]?
Answer: 5

Question: And the “Regressions PR” value [5, 21]?
Answer: 4

Question: And the “Regressions TFS” value [5, 21]?
Answer: 4

Question: What about the “% TGD” value [5, 22] of the same compound?
Answer: 12%

Question: And the “Median TTE” value [5, 22]?
Answer: 25.6 days

Question: And the “T − C” value [5, 22]?
Answer: 2.8 days

Question: And the “Regressions CR” value [5, 23]?
Answer: 0

Question: What about the “Regressions PR” value [5, 23] of the same compound?
Answer: 0

Question: And the “Regressions TFS” value [5, 23]?
Answer: 0

Question: And the “% TGD” value [5, 24]?
Answer: 21%

Question: What about the “Median TTE” value [5, 24] of the same compound?
Answer: 27.5 days

Question: And the “T − C” value [5, 24]?
Answer: 4.7 days

Question: What about the “Regressions CR” value [5, 25] of the same compound?
Answer: 0

Question: And the “Regressions PR” value [5, 25]?
Answer: 1

Question: And the “Regressions TFS” value [5, 25]?
Answer: 0

Question: And the “Mean BW Nadir” value ([5]; mouse, in vivo, po, 25 mg/kg)?
Answer: −0.6% Day 15

Question: And the GI50 (HT29 colon cells)?
Answer: 70 ± 12 nM

Question: And the GI50 (A431 epidermoid cells)?
Answer: > 10000 nM
